Laboratory results published in patent US20110100079A1, “METHOD FOR IMPARTING STRESS TOLERANCE TO PLANT” (priority 2007, published 2011).

Assays:
Format in all cases: in vivo
“Momotaro” tomato [1] = assay: Standard test: standard extent of imparting plant salt stress tolerance; settings: 100 ppm sprayed onto leaves 10 ml/specimen, NaCl 3510 ppm in tap water, fresh weight after 2 weeks vs salt-stressed untreated control plot 1
Procedure: Standard Test (I) Plant Preparation A 50-cell tray is filled with potting soil (fertilizer components: N:P:K=0.4:1.9:0.6 (g)/kg potting soil); and seeds of a “Momotaro” tomato (Takii Co., Ltd.) are sowed, thinly covered with potting soil, and sufficiently irrigated to allow the seeds to sprout. When the leaves in the 2-leaf stage are fully unfolded, the soil on the tomato roots is washed away with running water, and a test is performed. For the potting soil, Kureha gardening soil manufactured by Kureha Corporation may be used. (II) Test Condition Setting The environmental conditions are controlled such that the temperature is 23° C., the relative humidity is 50%, the illuminance is 5000 Lux, and the daily light-dark cycle includes a 16-hour light period and an 8-hour dark period. Such environmental conditions can be obtained by, for example, controlling the temperature in a room or a climate chamber where the temperature and the relative humidity can be controlled, and controlling illuminance by a fluorescent light or the like. […] (III) Treatment with Plant Stress Tolerance Imparting Composition […] A known surfactant or a like material that barely affects the plant may be used in the preparation of an aqueous dispersion. Test plot: An aqueous solution or an aqueous dispersion of a test compound (sugar derivative-type surfactant) (concentration: 100 ppm) is sprayed onto the leaves in an amount of 10 ml per tomato specimen. […] NaCl is added to a solution culture medium (creating a salt stress), but no test compound (plant stress tolerance imparting composition) is given to the tomato. Control plot 2: No NaCl is added to a solution culture medium (creating no salt stress), and no test compound (plant stress tolerance imparting composition) is given to the tomato. (IV) Calculation of Standard Extent of Imparting Plant Salt Stress Tolerance (%) […] The plant stress level (standard plant salt stress level) attained in the above-described standard test is about 130%. In this regard, the standard plant salt stress level can be calculated according to Formula (ii)′ below.

“Momotaro” tomato [2] = assay: Example 1 salt stress tolerance imparting test (tomato, hydroponic, Otsuka 1/2A + NaCl); settings: NaCl 3510 ppm, leaf, 2 weeks
Procedure: (1) Salt stress-free test conditions: NaCl concentration (water potential by Nan): 0 ppm (0 MPa). Other cultivation conditions were as the same as the conditions of the drying stress test.
When the leaves in the 2-leaf stage fully unfolded, the soil on the tomato roots was carefully washed away with running water, and a test was performed.
Method of Salt Stress Tolerance Imparting Test
The environmental conditions in a climatic chamber were controlled so as to have a temperature of 23° C., an illuminance by a fluorescent light of 5000 Lux, and a daily light-dark cycle of a 16-hour light period and an 8-hour dark period. […] A treatment solution containing a compound of Table 1 in a specific concentration (the remainder was water) was prepared and sprayed onto the leaves or applied to the underground portion. In addition, a control plot to which no NaCl was added, not imposing a salt stress (this is a control plot for plant body weight 2 for Formula (ii) and is a stress-free control plot) and a control plot to which NaCl was added in various concentrations, imposing a salt stress, and to which the treatment solution was not applied (this is a control plot for plant body weight 1 for Formula (ii) and is a control plot including a salt stress) were prepared as controls. Ten specimens were prepared for each of the test plot and the control plots, and a plant stress level and an extent of imparting plant stress tolerance were calculated according to Formulas (II) above using as a fresh plant body weight the average of the fresh plant body weights of each specimen 2 weeks after the beginning of the test.

[3] = test system: Potato Variety: Toyoshiro; assay: Example 5 drying stress tolerance imparting test (potato variety Toyoshiro); settings: pF 2.3, leaf, 3 weeks
Procedure: Other cultivation conditions were the same as the conditions of the drying stress test. Drying stress conditions: soil pF value: 2.3, 2.5, or 2.9, cultivation temperature: 23° C., relative humidity: 50%, illuminance: 5000 Lux (fluorescent light), light/dark cycle: 16 hours/8 hours (2) Cultivation Period: 3 weeks (3) Soil: Kureha gardening soil manufactured by Kureha Corporation (fertilizer components: N:P:K=0.4:1.9:0.6 g/kg soil) (4) The chemicals used and the amount of a treatment solution applied were the same as in Example 3. Method of Drying Stress Tolerance Imparting Test A planter (60 cm) was filled with Kureha gardening soil manufactured by Kureha Corporation (fertilizer components: N:P:K=0.4:1.9:0.6 g/kg soil) in a glass greenhouse, tubers of a “Thyoshiro” potato were cut in half: and 5 pieces thereof were planted in the planter, thinly covered with Kureha gardening soil, and sufficiently watered to allow the tubers to sprout. When the leaves in the 3-leaf stage fully unfolded, the Solarium tuberosu was relocated on a plant culture rack in an air-conditioned room, and a test was initiated. […] From immediately after the beginning of the test, a treatment solution of Table 1 was sprayed onto the leaves or applied to the underground portions once a week. […] Five specimens (per planter) were prepared for each of the test plot and the control plots, plant bodies were collected 3 weeks after the beginning of the test such that the roots were not cut, the soil was washed away with running water, the fresh plant body weights were measured, and a plant stress level and an extent of imparting plant stress tolerance were calculated according to Formula (ii) and (iii) above using the average of the weights.

“Momotaro” tomato [4] = assay: Example 4 salt stress tolerance imparting test (tomato, tap water + NaCl); settings: tap water + NaCl 3510 ppm, leaf, 2 weeks
From the text: NaCl concentration 3510 ppm (water potential by NaCl: […]) (4) Cultivation period: two weeks (5) Plant preparation: A 50-cell tray was filled with Kureha gardening soil manufactured by Kureha Corporation (fertilizer components: N:P:K=0.4:1.9:0.6 g/kg soil), and seeds of a “Momotaro” tomato were sowed, thinly covered with Kureha gardening soil, and sufficiently irrigated to allow the seeds to sprout. When the leaves in the 2-leaf stage fully unfolded, the soil on the tomato roots was carefully washed away with running water, and a test was performed. (6) The chemicals used and the concentration of a treatment solution were as in Example 1 (7) Amount of application: 10 ml/specimen for leaf spraying, 50 ml/specimen for fertigation Method of Salt Stress Tolerance Imparting Test […]

POE (20) sorbitan monolauric acid ester [Product of present invention 12]
Standard extent of imparting plant salt stress tolerance (“Momotaro” tomato [1]): 116%
Extent of imparting plant stress tolerance (“Momotaro” tomato [2]; 100 ppm): 116%
Extent of imparting plant stress tolerance (“Momotaro” tomato [2]; 200 ppm): 120%
Extent of imparting plant stress tolerance ([3]; 100 ppm once a week): 117%
Extent of imparting plant stress tolerance ([3]; 200 ppm once a week): 120%
Extent of imparting plant stress tolerance (“Momotaro” tomato [4]; 100 ppm): 116%
Extent of imparting plant stress tolerance (“Momotaro” tomato [4]; 200 ppm): 117%

Sucrose fatty acid ester (C18, HLB = 15) [Product of present invention 20]
Standard extent of imparting plant salt stress tolerance (“Momotaro” tomato [1]): 116%
Extent of imparting plant stress tolerance (“Momotaro” tomato [2]; 100 ppm): 113%
Extent of imparting plant stress tolerance ([3]; 100 ppm once a week): 118%
Extent of imparting plant stress tolerance (“Momotaro” tomato [4]; 100 ppm): 116%

C[N+](C)(C)CC(=O)[O-] [Comparative product 3, Glycine betaine, reference compound]
Standard extent of imparting plant salt stress tolerance (“Momotaro” tomato [1]): 103%
Extent of imparting plant stress tolerance (“Momotaro” tomato [2]; 100 ppm): 103%
Extent of imparting plant stress tolerance ([3]; 100 ppm once a week): 102%
Extent of imparting plant stress tolerance (“Momotaro” tomato [4]; 100 ppm): 103%
